Where two headings read alike, the source gives them in different places. Residues, ends and D or L forms follow the SMILES beside them. No end group written: not given here.
Assays:
[1] = tested on: RERF-LCAI, LC1sq, 11-18 and LK87 lung cancer cells; assay: 51Cr release cytotoxicity assay on lung cancer cell lines; format: cell-based; conditions: FIG. 4; E:T 20:1, 4 hours
Method: The cytotoxic activity of effector cells stimulated with WT1 wild peptide or WT1 modified peptide was tested on a cancer cell line associated with lung cancer that endogenously expresses WT1 antigen (target cells) using the ^51Cr release method.

HLA-A*2402 [2] = biological target: T1, HLA-A*2402 (Homo sapiens, UniProt P04439, D101N/D140Y/D185E/E176V/E190D/F33S/G103R/G107R/I119L/I121M/I306V/K335N/L105A/L180Q/L300P/N151K/N90K/Q86E/Q94H/R106L/R138H/R89G/T104I/T345S/V100E/W191G/Y123F); assay: Binding affinity to HLA-A*2402 on acid-treated C1RA2402 cells (flow cytometry)
Method: After washing the cells with the medium, they were suspended at a concentration of 2×10^6 cells/ml in DMEM medium containing 200 nM β2-microglobulin (Sigma) and 0.5% bovine serum albumin. 15 μl of the cell suspension were mixed with 50 μl of the medium comprising various concentrations of WT1 peptide followed by incubating for 4 hours at room temperature. After washing the cells, they were stained with monoclonal antibody to HLA-A24 labeled with FITC (clone name: 7A12), and the amount of HLA-A24 expressed was analyzed with a flow cytometer FACS system.

[3] = tested on: peripheral blood mononuclear cells from HLA-A*2402-positive donors; assay: Stimulation of peripheral blood mononuclear cells with peptide; status of the resulting cells; format: cell-based, human
Method: Peripheral blood mononuclear cells were isolated from HLA-A*2402-positive donors and distributed among the wells of a 24-well plate at 2×10^6 cells/well followed by the addition of WT1 wild peptide or WT1 modified peptide to a concentration of 20 μM and culturing for 1 week. The medium used at this time consisted of 45% RPMI, 45% AIV, 10% FCS 1× non-essential amino acids and SM/PCG. Following the aforementioned culturing, the cells were adjusted to 2×10^6 cells/well and used as responder cells.
On the other hand, other peripheral blood mononuclear cells were similarly isolated from the same HLA-A*2402-positive donors and then peptide-pulsed by culturing for 4 days with one of the aforementioned peptides at 20 μM. After then irradiating at 30 Gy, the cells were adjusted to 4×10^6 cells/well and used as stimulator cells.
The responder cells and stimulator cells prepared in the manner described above were then mixed and then cultured for 1 week following the addition of IL-2 at 50 U/ml.

[4] = tested on: C1R2402 cells pulsed with WT1 wild peptide; assay: Blocking assay using antibody (51Cr release); format: cell-based; conditions: FIG. 5; E:T 20:1, 4 hours; anti-HLA class I, anti-HLA class II, anti-CD8 antibody
Text: The antibodies used consisted of anti-HLA class I antibody, anti-HLA class II antibody and anti-CD8 antibody.

C1R2402 cells = assay: Killing assay (51Cr release) by peptide-stimulated effector cells on peptide-pulsed C1R2402 target cells; format: cell-based
Text: FIG. 1 is a graph showing the cell killing effects (specific cytolytic activity) on C1R2402 target cells (T), either pulsed or not pulsed with peptide, by effecter cells (E) stimulated with WT1 wild peptide (Sequence ID No. 2) or the WT1 modified peptide of the present invention (Sequence ID No. 3). In the graph, the black circles indicate the cytolytic effect on C1R2402 target cells pulsed with wild peptide by effecter cells stimulated with WT1 modified peptide, the black squares indicate the cytolytic effect on […] target cells pulsed with wild peptide by effecter cells stimulated with WT1 wild peptide, the white circles indicate the cytolytic effect on C1R2402 target cells not pulsed with wild peptide by effecter cells stimulated with WT1 modified peptide, and the white squares indicate the cytolytic effect on C1R2402 target cells not pulsed with wild peptide by effecter cells stimulated with WT1 wild peptide.
FIG. 3 is a graph showing the cell killing effects (specific cytolytic activity) on C1R2402 target cells, either pulsed or not pulsed with peptide, by effecter cells stimulated with WT1 wild peptide or the WT1 modified peptide of the present invention. […]

[5] = tested on: leukemia cells from AML patients (WT1+/A*2402+); assay: 51Cr release cell killing assay on leukemia cells endogenously expressing WT1 antigen; format: cell-based, human; conditions: FIG. 2, E:T 20:1, 4 hours, AML patient cells WT1+/-
Method: The cell killing activity of effector cells stimulated with WT1 wild peptide or WT1 modified peptide on leukemia cells that endogenously express WT1 antigen was tested according to the ^51Cr release method.

HLA-A*2402 [6] = biological target: T1, HLA-A*2402; conditions: reported in J. Immunol., 154, 5994, 1995; cited from earlier work
[7] = resulting cells after stimulation with 20 μM peptide and IL-2 50 U/ml

Molecule	cytotoxic activity of peptide-stimulated effector cells on lung cancer cell lines [1]	binding affinity for HLA-A*2402 (comparison) (HLA-A*2402 [2])	Kd (HLA-A*2402 [2]; calculated using pmel 15 antigen peptide as standard, 4 hours at room temperature, read-out: Dissociation constant Kd) [µM]	No. of cells ([3]; PBMC stimulated with 20 μM peptide, responder plus stimulator cells cultured 1 week with IL-2 50 U/ml)	CD4 [3, 7] [%]	CD8 [3, 7] [%]	blocking of cytotoxic activity of peptide-stimulated effector cells by antibodies [4]	cell killing activity (cell lysis) of peptide-stimulated effector cells (C1R2402 cells; Example 1, FIG. 1, E:T ratio 1, 5, 20, C1R2402 target cells pulsed or not pulsed with peptide)	cytotoxic activity of peptide-stimulated effector cells (C1R2402 cells; Example 3, FIG. 3, effector cells from different healthy HLA-A*2402-positive donors)	cytotoxic activity of peptide-stimulated effector cells on leukemia cells [5]	Kd (HLA-A*2402 [2]) [µM]	binding to HLA-A*2402 (HLA-A*2402 [6])
CSCC[C@H](NC(=O)[C@H](CCC(N)=O)NC(=O)[C@H](CC(N)=O)NC(=O)[C@H](Cc1c[nH]c2ccccc12)NC(=O)[C@@H](NC(=O)[C@H](Cc1ccc(O)cc1)NC(=O)[C@@H](N)CS)[C@@H](C)O)C(=O)N[C@@H](CC(N)=O)C(=O)N[C@@H](CC(C)C)C(=O)O [WT1 modified peptide, Cys Tyr Thr Trp Asn Gln Met Asn Leu] (H-CYTWNQMNL-OH; N-terminus and C-terminus assumed)	the level of that activity was higher	stronger binding affinity for HLA-A*2402 than the WT1 wild peptide	0.64	3.0 × 10^6/well	18	38	blocked by anti-HLA class I antibody and anti-CD8 antibody	more potent cell killing activity than cells stimulated with WT1 wild peptide	more potent cytotoxic activity than cells stimulated with WT1 wild peptide	the level of that activity was higher		
CSCC[C@H](NC(=O)[C@H](CCC(N)=O)NC(=O)[C@H](CC(N)=O)NC(=O)[C@H](Cc1c[nH]c2ccccc12)NC(=O)[C@@H](NC(=O)[C@H](CCSC)NC(=O)[C@@H](N)CS)[C@@H](C)O)C(=O)N[C@@H](CC(N)=O)C(=O)N[C@@H](CC(C)C)C(=O)O [WT1 wild peptide, Cys Met Thr Trp Asn Gln Met Asn Leu, reference compound] (H-CMTWNQMNL-OH)	demonstrated cytotoxic activity only on the WT1+/A*2402+ cells						blocked by anti-HLA class I antibody and anti-CD8 antibody			demonstrated cytotoxic activity on the WT1+/A*2402 cells	18.2	
AYGLDFYIL [melanoma antigen peptide used as standard for the Kd calculation]												reported to bind to HLA-A*2402
